Test results taken from US20220348590A1, “CYCLOOXYGENASE-2 INHIBITORS AND USES THEREOF” (The Board Institute, Inc., priority 2019, published 2022).
Entries after “also recorded” stand apart in the source; their conditions may differ.

Key:
[1] = Mouse Microsome Stability; assay type: in vitro ADME; details: mouse microsomes
[2] = target: T1, human recombinant COX2 (hCOX2) (UniProt P35354); assay: LCMS-based COX2 enzymatic inhibition assay (PGE2 quantification); assay type: biochemical; set-up: improvement in potency; other: COX2 potency relative to MC1 / earlier ligand; comparator not always stated; other: vs MC1 (MC-1)
T1 sequence (P35354 1-604): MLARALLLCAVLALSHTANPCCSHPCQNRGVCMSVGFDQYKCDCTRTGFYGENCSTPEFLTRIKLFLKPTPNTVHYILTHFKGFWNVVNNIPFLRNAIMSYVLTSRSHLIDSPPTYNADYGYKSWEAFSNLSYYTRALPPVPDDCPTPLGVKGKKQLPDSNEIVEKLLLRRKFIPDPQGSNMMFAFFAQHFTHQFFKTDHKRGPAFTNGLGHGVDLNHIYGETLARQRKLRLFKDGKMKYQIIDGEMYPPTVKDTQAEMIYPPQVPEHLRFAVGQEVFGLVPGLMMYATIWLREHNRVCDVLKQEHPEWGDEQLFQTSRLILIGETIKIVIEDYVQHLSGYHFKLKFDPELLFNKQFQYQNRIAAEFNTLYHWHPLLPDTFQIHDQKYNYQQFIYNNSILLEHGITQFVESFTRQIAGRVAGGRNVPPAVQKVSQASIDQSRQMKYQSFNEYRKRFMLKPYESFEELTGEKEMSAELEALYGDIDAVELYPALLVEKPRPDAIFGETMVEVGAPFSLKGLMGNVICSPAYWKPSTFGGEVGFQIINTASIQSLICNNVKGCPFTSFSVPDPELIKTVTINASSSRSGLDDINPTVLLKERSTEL
Method: We have adapted a previously reported cyclooxygenase enzymatic assay utilizing LCMS quantification of PGE2 as the product of COX-1 and COX2 catalyzed conversion of arachidonic acid to evaluate the binding properties of newly synthesized ligands [Cao, 2011]. These optimized and miniaturized (384-well plates) LCMS-based COX-1 and COX2 enzymatic assays enabled us to quickly evaluate newly synthesized ligands for COX2 binding affinity and selectivity vs COX-1. Using a shorter ligand-enzyme incubation time in the LCMS assay (2 minutes vs 10 minutes) also permitted us to prioritize ligands with faster binding kinetics. Considering the relatively slow on-rate kinetics of known coxibs, due to their 3-step binding mechanism [Marnett, 2009], we believe that optimizing this critical parameter will be key to the successful development of a COX2 PET tracer. Using these enzymatic assays, we have evaluated>200 newly synthesized ligands against COX2 and >20 ligands against COX-1. Another critical property necessary for a good PET radiotracer is to have low non-specific binding (NSB) to increase the free fraction and maximize the signal to noise ratio. This property can be evaluated using in-vitro protein binding assays, and we have now evaluated>50 newly synthesized ligands in mouse, rat and human plasma protein binding (PPB) assays as well as >15 ligands in a mouse brain protein binding (BPB) assay.
Ovine COX-1 (oCOX-1), ovine COX2 (oCOX2), human recombinant COX2 (hCOX2), arachidonic acid, PGE2, d4-PGD2, and […] (labeled with deuterium atoms at positions 3 and 4) were purchased from Cayman Chemicals (Ann Arbor, Mich.). The cofactors (−)epinephrine and hematin, and the COX inhibitors indomethacin, resveratrol and diclofenac were purchased from Sigma-Aldrich (St. Louis, Mo.). Celecoxib was purchased from 3B PharmaChem International (Wuhan, China). All organic solvents were HPLC grade or better and were purchased from Thermo Fisher (Hanover Park, Ill.). Formic acid was purchased from EMD Chemicals (San Diego, Calif.). Purified water was prepared by using a Millipore Milli-Q purification system (Millipore, Billerica, Mass.). All other chemicals and solvents were ACS reagent grade, unless stated otherwise.
In an Eppendorf tube, 146 μL of 100 mM Tris.HCl (pH 8.0) buffer, 2 μL of 100 μM hematin (co-factor) and 10 μL of 40 mM L-epinephrine (co-factor) were mixed at room temperature. […]
The concentration of PGE2 in each sample was measured using LC-MS-MS, and the percent of COX inhibition by each test solution was determined by comparing the amount of PGE2 produced in the experiment with that produced in the negative control incubation. The formation of PGD2 was measured for quality control purposes, since the levels of PGD2 should be proportional to those of PGE2. […]

SMILES	Mouse Microsome Stability % Remaining Avg [1] [%]	potency / binding affinity compared to MC1 ([2]; vs MC1 (MC-1))	improvement in potency ([2]; COX2 potency relative to MC1 / earlier ligand, comparator not always stated) [fold]
CS(=O)(=O)c1ccc(-c2cncc(NCc3cccs3)n2)cc1 [Compound 98]	3	maintaining potency; also recorded: equivalent binding affinity	–
COc1ncc(NCc2cccs2)nc1-c1ccc(S(C)(=O)=O)cc1 [Compound 29]	4.3	–	–
CS(=O)(=O)c1ccc(-c2cccc(NCc3ccoc3)n2)cc1 [Compound 47, N-(furan-3-ylmethyl)-6-(4-(methylsulfonyl)phenyl)pyridin-2-amine]	–	–	~4
